Measured values: US20050132448A1, “Assay for beta cell toxic macrolides” (priority 2001, published 2005)
Entries after “also recorded” stand apart in the source; their conditions may differ.

Experiments:
[1] = molecular target: T1, vATPase (Mus musculus, UniProt P63082); test: V-ATPase activity assay on kidney homogenates of bafilomycin A1 treated mice; format: in vivo; conditions: for Bafilomycin A1 sensitive ATPase activity ± SD / total ATPase activity ± SD: kidney homogenate; for reduction of bafilomycin A1 sensitive ATPase activity: vs control
T1 construct: from tissue; host or cells: kidney of male Balb/c mice (crude homogenate, 700 x g supernatant)
Method: Male Balb/c mice were provided by the Monash University Central Animal House and Breeding Facility. The Monash University Department of Biochemistry Animal Ethics Committee approved all animal experimentation. Bafilomycin A1 (Sigma) was dissolved in 70% ethanol then diluted 1 in 10 with sterile phosphate buffered saline (PBS) to give a working stock of 4.8 μg/ml. Groups of between 3 and 9 mice as indicated were administered 12 μg per kilogram (body weight) bafilomycin A1 by intraperitoneal injection, which should achieve a final concentration in the blood of 275 nM bafilomycin A1 assuming a blood volume of 70 ml per kg for mice. […] Control mice received the ethanol/PBS carrier solution that lacked the inhibitor.
Seven control mice, 4 mice treated 1 day previously and 4 mice treated 7 days previously with bafilomycin A1 were anaesthetised with 35 mg per kg body weight pentobarbitone (Nembutal) and the kidneys removed and immediately frozen on dry ice and stored at −80° C. until processed. The kidneys were weighed then homogenised in liquid nitrogen using a mortar and pestle. 1 ml of 10 mM Tris-Cl pH 8.0 and 2 mM Mg2Cl containing protease inhibitors was then added and the tissue was further homogenised with 5 strokes of a dounce homogeniser. One ml of 0.5 M sucrose, 40 mM Tris-Cl pH 8, 2 mM Mg2Cl was then added to the homogenate and the suspension was clarified by centrifugation at 700×g for 10 minutes at 4° C. Supernatents containing soluble and membrane bound components were then assayed in duplicate for ATPase activity by incubating 100 μl of a 1:100 dilution of the tissue extract with 1 mM ATP in Tris buffered saline (TBS) for 30 minutes in the well of a microtitre plate in the presence or absence of 15 μl of a 1 μM solution of bafilomycin A1 in a final reaction volume of 200 μl. The inorganic phosphate released was measured using the one-step method of Chan et al., (1986), and absorbances were read in a microtitre plate reader at a wavelength of 660 nm. Results were corrected for background phosphate concentration and ATP autohydrolysis. The protein content of each kidney extract was determined using the Bradford reagent (Biorad).

[2] = test system: Balb/c mice; test: Long-term effects on random blood glucose, weight and islet morphology/size; format: in vivo
Method: FIG. 6 is a graphical representation of islet size following administration of bafilomycin A1. Reduced islet size is a long-term consequence of vacuolar ATPase inhibition. Pancreas morphology was examined at either 1, 7, 26 or 90 days after administration of bafilomycin A1. Islet size was determined by measuring the areas of the pancreas sections positive for staining with insulin antibody using MCID software. • Controls—223 islets from 12 mice • 1 day—81 islets from 3 mice • 7 days—125 islets from 3 mice • 26 days—90 islets from 4 mice • 90 days—81 islets from 4 mice • The black square represents the median, the dotted boxes 25-75th percentiles, bars the 10-90th percentiles, and outliers by dots.
The pancreas, liver, kidney and brain were dissected from anaesthetised mice and immediately fixed in formalin. Paraffin embedded sections (4 μm) were either stained with haemotoxylin and eosin or prepared for immunohistochemistry or indirect immunofluorescence. Immunostaining was performed on de-paraffinised sections as follows. The section was blocked in PBS containing 1% skim milk powder for 1 hour. Anti-insulin antiserum raised in Guinea pig (Dako) was diluted 1 in 50 in PBS 1% skim milk powder and left at room temperature for 60 minutes. Sections were washed in PBS and incubated with 1:200 dilution of horse radish peroxidase conjugated anti-guinea pig antiserum (Sigma) or a 1:400 dilution of FITC-conjugated anti-guinea pig serum (Sigma) for 1 hour. Endogenous peroxidase activity was inactivated using 0.5% hydrogen peroxide in methanol prior to the antibody incubations and bound HRP conjugated antibody was detected using Sigma FAST-DAB peroxidase tablets. FITC was detected using an Olympus epifluorescence microsocope and images were captured and analysed using a digital camera and MCID software.
The long-term effects of bafilomycin A1 on blood glucose concentrations and islet morphology were investigated in 4 mice treated twice with a weekly interval. Random blood glucose levels (RBG) and weight were determined, weekly over 90 days and results were compared to a control group of 3 mice treated with carrier solution.

[3] = test system: C57B1/6J mice; test: Size and number of pancreatic islets after vATPase inhibitors; format: in vivo
Method: The effect of vATPase inhibitors on the size and number of pancreatic islets was analysed in C57B1/6J using either bafilomycin A1 (BA1) or concanamycin A (CMA). The effect of Streptozotocin, an islet beta-cell specific toxin produced by Streptomyces achromogenes was also examined, to enable comparison with the effect of vATPase inhibitors.
Groups of 4 female C57B1/6J mice were injected with 5 doses on 5 consecutive days of 12 ng/g body weight BA1, CMA or the well characterised islet β-cell toxin streptozotocin. Pancreases were removed on day 84 and 3 formalin-fixed sections per mouse were immunostained for insulin. The area of insulin-positive islets was measured on digital images using MCID software.

[4] = test system: NOD/lt mice; test: Acceleration of diabetes onset in NOD mice; format: in vivo; conditions: 12 ng per gram i.p. on 5 consecutive days, 11-week-old female mice
Method: The NOD mouse develops spontaneous diabetes due to an autoimmune mediated destruction of the pancreatic islet β-cells. The characteristics of diabetes development in the NOD mouse parallel those in humans, making the NOD mouse a useful model of human Type 1 diabetes. Lymphocytic infiltrates in the pancreatic islets, termed insulitis, first develops in NOD mice soon after weaning at 4 weeks of age and hyperglycaemia first appears from 18 to 32 weeks of age. Bafilomycin A1 was administered to NOD mice to test whether the onset of hyperglycaemia was accelerated.
Eleven-week-old female NOD/lt mice were injected intraperitoneally with either 12 ng per gram body weight of bafilomycin A1 (10 mice) or phosphate buffered saline carrier solution (10 mice) on each of 5 consecutive days. Blood glucose was monitored weekly and diabetes defined as a blood glucose measurement greater than 11 mmol/L.

[5] = test system: F-ATPase; conditions: 275 nM; cited from earlier work

T1 sequence (Q91V37 whole entry): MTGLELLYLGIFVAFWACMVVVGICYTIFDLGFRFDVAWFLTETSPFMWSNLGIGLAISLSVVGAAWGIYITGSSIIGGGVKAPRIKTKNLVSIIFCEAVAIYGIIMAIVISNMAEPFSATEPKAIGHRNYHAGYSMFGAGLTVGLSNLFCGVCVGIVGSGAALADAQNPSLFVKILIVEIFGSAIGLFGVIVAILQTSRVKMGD
T1 sequence (P63082 whole entry): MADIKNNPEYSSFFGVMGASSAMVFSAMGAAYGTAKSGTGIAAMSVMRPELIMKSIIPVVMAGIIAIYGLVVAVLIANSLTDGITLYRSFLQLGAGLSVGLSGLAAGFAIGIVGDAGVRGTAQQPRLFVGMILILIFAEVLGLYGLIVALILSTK

Compound: CO/C1=C\C(C)=C\[C@@H](C)[C@@H](O)[C@@H](C)C/C(C)=C/C=C/[C@H](OC)[C@@H]([C@@H](C)[C@@H](O)[C@H](C)[C@@]2(O)C[C@@H](O)[C@H](C)[C@@H](C(C)C)O2)OC1=O [bafilomycin A1]
- kidney % of animal weight ± SD ([1]; 1 day after treatment): 0.90 ± 0.11%
- weight or protein contents of the kidneys, treated vs control ([1]; 1 day and 7 days after treatment): no significant differences
- kidney % of animal weight ± SD ([1]; 7 day after treatment): 0.90 ± 0.15%
- Bafilomycin A1 sensitive ATPase activity ± SD ([1]; 1 day after 12 μg/kg i.p.): 0.80 ± 0.30 Nmol/min/mg protein
- total ATPase activity ± SD ([1]; 1 day after 12 μg/kg i.p.): 4.4 ± 0.5 Nmol/min/mg protein
- Bafilomycin A1 sensitive ATPase activity ± SD ([1]; 7 day after 12 μg/kg i.p.): 0.80 ± 0.30 Nmol/min/mg protein
- total ATPase activity ± SD ([1]; 7 day after 12 μg/kg i.p.): 4.8 ± 0.8 Nmol/min/mg protein
- reduction of bafilomycin A1 sensitive ATPase activity ([1]; kidney, 1 day after treatment): 50%
- reduction of bafilomycin A1 insensitive ATPase activity ([1]; kidney, 1 day and 7 days after treatment): not in bafilomycin A1 insensitive ATPase activity
- reduction of bafilomycin A1 sensitive ATPase activity ([1]; kidney, 7 days after treatment): 50%
- total islet area as a percentage of the total area of pancreas ([2]; 1 day): 0.33%
- islet size vs controls ([2]; 1 day treatment group): no differences
- total islet area as a percentage of the total area of pancreas ([2]; 7 day treated mice): 0.30%
- islet size vs controls ([2]; 7 day treatment group): no differences
- total islet area as a percentage of the total area of pancreas ([2]; 26 day treated mice): 0.23%
- morphology of kidney, liver, testes and brain ([2]; 90 day end-point): did not reveal any gross morphological changes
- morphology of the islets ([2]; 90 day end-point, 2 doses): signs of fragmentation or neogenesis
- total islet area as a percentage of the total area of pancreas ([2]; 90 day treated mice): 0.16%
- islet size vs controls ([2]; treated 26 days previously): significant decrease
- mean islet size ([2]; treated 26 days previously): 4900 μm2
- islet size vs controls ([2]; treated 90 days previously): significant decrease
- mean islet size ([2]; treated 90 days previously, 2 doses): 2800 μm^2
- increased level of RBG first detectable after treatment ([2]; treated twice a week apart): 50 days
- weight of treated vs control groups ([2]; treated twice a week apart, followed 90 days): did not differ significantly; also recorded: No significant difference
- random blood glucose levels (RBG) vs controls ([2]; treated twice a week apart, weekly measurement for 90 days): small but significant increase
- No. islets per mm^2 pancreas section ([3]; day 84, 5 daily doses of 12 ng/g body weight): 0.85 per mm^2 pancreas section
- effect on islet number and size ([3]; i.p. 12 ng/gram body weight): increased the number of small islets
- Median size ([3]; insulin-positive islets, day 84, 5 daily doses of 12 ng/g body weight): 3830 μm^2
- onset of islet beta cell destruction and hyperglycaemia [4]: slight acceleration
- inhibition of F-ATPase activity [5]: no detectable inhibition
